Active and inactive are the calls of the source.
What was measured:
[1] = target: T1, Delta-type opioid receptor (Homo sapiens, UniProt P41143); experiment: HTS Image-Based Screen for Agonists of the DOR Receptor. [Related pubchem assays (depositor defined):AID1777, AID1786, AID2133]; type: functional
[2] = target: T2, Kappa-type opioid receptor (Homo sapiens, UniProt P41145); type: functional
[3] = target: T2, Kappa-type opioid receptor; experiment: KOR antagonists by imaging, SAR follow-up, image-based (AID 2348); type: functional
[4] = HEp-2 cell cytotoxicity, dose response, cytotoxicity control for RSV inhibitor project, HTS (AID 2410); type: functional; conditions: human respiratory syncytial virus
[5] = target: T1, Delta-type opioid receptor; experiment: HTS Image-Based Screen for Antagonists of the DOR Receptor. [Related pubchem assays (depositor defined):AID1777, AID1785, AID1786, AID2133]; type: functional
Mu-type opioid receptor [6] = target: T3, Mu-type opioid receptor (Homo sapiens, UniProt P35372); experiment: HTS Image-Based Screen for Agonists of the MOR Receptor. [Related pubchem assays (depositor defined):AID1777, AID1785, AID1786, AID2133]; type: functional
T3 sequence (P35372 whole entry): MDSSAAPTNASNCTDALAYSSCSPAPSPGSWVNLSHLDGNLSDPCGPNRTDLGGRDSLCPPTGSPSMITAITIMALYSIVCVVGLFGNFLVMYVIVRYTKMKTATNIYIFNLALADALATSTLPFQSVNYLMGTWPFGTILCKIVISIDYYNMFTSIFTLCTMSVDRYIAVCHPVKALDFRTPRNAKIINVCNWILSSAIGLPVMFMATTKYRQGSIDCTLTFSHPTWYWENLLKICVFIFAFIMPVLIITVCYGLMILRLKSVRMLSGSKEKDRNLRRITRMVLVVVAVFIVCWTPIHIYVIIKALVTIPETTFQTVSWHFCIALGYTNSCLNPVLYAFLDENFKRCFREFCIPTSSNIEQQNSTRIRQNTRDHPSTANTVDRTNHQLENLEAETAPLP

[7] = target: T2, Kappa-type opioid receptor; type: functional; remark: listed apart in the source
[8] = target: T1, Delta-type opioid receptor; experiment: DOR agonists, SAR follow-up, image-based (AID 2370); type: functional
Mu-type opioid receptor [9] = target: T3, Mu-type opioid receptor; experiment: MOR agonists by imaging, SAR follow-up, image-based (AID 2352); type: functional
Mu-type opioid receptor [10] = target: T3, Mu-type opioid receptor; experiment: MOR antagonists, SAR follow-up, image-based (AID 2420); type: functional;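 note: compounds added before stimulation of receptor with agonist DAMGO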
[11] = target: T1, Delta-type opioid receptor; experiment: DOR antagonists, SAR follow-up, image-based (AID 2357); type: functional
[12] = target: T4, Polyadenylate-binding protein 1 (Homo sapiens, UniProt P11940); experiment: PABP1 MLLE–PAM2 binding inhibitor potency, dose response, biochemical, fluorescence polarization, FITC-PAM2 peptide (AID 602259); type: functional; conditions: read-out: IC50_Mean
T4 sequence (P11940 whole entry): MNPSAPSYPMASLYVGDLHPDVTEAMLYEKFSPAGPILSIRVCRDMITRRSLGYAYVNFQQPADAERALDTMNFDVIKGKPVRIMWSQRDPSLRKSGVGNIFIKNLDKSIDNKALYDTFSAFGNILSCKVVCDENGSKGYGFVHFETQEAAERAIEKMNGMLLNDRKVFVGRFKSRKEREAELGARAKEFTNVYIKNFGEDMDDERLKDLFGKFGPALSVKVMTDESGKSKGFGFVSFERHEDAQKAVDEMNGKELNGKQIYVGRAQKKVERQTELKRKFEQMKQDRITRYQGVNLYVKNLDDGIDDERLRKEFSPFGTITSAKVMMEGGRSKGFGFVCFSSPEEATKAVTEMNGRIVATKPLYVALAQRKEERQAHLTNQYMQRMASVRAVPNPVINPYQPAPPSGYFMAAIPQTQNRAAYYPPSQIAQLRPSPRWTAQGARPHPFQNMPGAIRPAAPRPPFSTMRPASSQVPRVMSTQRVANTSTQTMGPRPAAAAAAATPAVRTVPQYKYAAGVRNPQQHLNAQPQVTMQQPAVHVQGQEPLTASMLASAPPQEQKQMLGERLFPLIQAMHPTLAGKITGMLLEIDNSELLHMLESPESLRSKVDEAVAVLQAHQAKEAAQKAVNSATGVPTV

[13] = human group III sPLA2 inhibitors, dose response, biochemical, QFRET, IC50 (AID 743457);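 note: green fluorescence rise as the enzyme cleaves BODIPY PC-A2 in liposomes; potency for inhibition of the enzyme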
[14] = target: T4, Polyadenylate-binding protein 1; experiment: PABP1 MLLE–PAM2 interaction inhibitors, dose response, miRNA deadenylation inhibitor project, biochemical, fluorescence polarization, Cy5-PAM2 peptide, secondary (AID 602260); type: functional; conditions: read-out: IC50_Mean
[15] = THP-1 cell cytotoxicity, dose response, cytotoxicity control for non-replicating M. tuberculosis project (AID 489025); type: functional
[16] = target: Eukaryotic translation initiation factor 4E (Mus musculus, UniProt P63073); experiment: eIF4E–eIF4G protein interaction inhibitors, dose response, biochemical, TR-FRET (AID 855); type: functional;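 note: potency for disrupting eIF4E binding to eIF4GI seen as loss of FRET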
Eukaryotic translation initiation factor 4E, sequence (P63073 whole entry): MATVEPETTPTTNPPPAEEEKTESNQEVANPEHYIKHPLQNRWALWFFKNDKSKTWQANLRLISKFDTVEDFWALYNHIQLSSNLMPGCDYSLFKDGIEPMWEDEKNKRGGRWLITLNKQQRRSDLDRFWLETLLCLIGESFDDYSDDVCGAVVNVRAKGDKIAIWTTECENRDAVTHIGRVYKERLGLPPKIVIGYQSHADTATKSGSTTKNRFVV

[17] = target: Induced myeloid leukemia cell differentiation protein Mcl-1 (Homo sapiens, UniProt Q07820); type: functional
Induced myeloid leukemia cell differentiation protein Mcl-1, sequence (Q07820 whole entry): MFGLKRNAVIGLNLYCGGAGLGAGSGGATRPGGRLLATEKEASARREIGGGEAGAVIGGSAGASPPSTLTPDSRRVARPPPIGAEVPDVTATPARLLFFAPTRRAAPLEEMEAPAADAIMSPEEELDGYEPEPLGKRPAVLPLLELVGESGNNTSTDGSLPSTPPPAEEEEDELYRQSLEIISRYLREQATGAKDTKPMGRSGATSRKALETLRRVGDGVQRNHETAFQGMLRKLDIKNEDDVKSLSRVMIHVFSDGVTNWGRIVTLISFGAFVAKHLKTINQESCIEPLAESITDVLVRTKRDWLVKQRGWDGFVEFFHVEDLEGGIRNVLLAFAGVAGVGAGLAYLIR

[18] = THP-1 cell cytotoxicity, dose response, cytotoxicity control for Vif-APOBEC3G degradation inhibitor project, THP-1 cells (AID 1117359); type: functional; conditions: Human immunodeficiency virus 1, THP-1
[19] = target: Glucose-6-phosphate 1-dehydrogenase (Homo sapiens, UniProt P11413); experiment: human G6PD enzyme inhibitors, dose response, selectivity assay for P. falciparum G6PD inhibitor project, biochemical, fluorescence (AID 504792); type: functional
[20] = target: C-C chemokine receptor type 6 (Homo sapiens, UniProt P51684); experiment: CCR6 receptor antagonists, dose response, cell-based, luminescent beta-arrestin readout (AID 504728); type: functional
Beta-galactosidase = Beta-galactosidase (Escherichia coli, UniProt Q8VNN2); experiment: beta-galactosidase enzyme inhibitors and activators, dose response, artefact control for CCR6 antagonist project, biochemical, E. coli enzyme, set 3 (AID 504712); type: functional
Hexokinase HKDC1 = target: T5, Hexokinase HKDC1 (Homo sapiens, UniProt Q2TB90); experiment: HKDC1 hexokinase inhibitors, dose response, biochemical, W721R variant (AID 504729); type: functional
T5 sequence (Q2TB90 whole entry): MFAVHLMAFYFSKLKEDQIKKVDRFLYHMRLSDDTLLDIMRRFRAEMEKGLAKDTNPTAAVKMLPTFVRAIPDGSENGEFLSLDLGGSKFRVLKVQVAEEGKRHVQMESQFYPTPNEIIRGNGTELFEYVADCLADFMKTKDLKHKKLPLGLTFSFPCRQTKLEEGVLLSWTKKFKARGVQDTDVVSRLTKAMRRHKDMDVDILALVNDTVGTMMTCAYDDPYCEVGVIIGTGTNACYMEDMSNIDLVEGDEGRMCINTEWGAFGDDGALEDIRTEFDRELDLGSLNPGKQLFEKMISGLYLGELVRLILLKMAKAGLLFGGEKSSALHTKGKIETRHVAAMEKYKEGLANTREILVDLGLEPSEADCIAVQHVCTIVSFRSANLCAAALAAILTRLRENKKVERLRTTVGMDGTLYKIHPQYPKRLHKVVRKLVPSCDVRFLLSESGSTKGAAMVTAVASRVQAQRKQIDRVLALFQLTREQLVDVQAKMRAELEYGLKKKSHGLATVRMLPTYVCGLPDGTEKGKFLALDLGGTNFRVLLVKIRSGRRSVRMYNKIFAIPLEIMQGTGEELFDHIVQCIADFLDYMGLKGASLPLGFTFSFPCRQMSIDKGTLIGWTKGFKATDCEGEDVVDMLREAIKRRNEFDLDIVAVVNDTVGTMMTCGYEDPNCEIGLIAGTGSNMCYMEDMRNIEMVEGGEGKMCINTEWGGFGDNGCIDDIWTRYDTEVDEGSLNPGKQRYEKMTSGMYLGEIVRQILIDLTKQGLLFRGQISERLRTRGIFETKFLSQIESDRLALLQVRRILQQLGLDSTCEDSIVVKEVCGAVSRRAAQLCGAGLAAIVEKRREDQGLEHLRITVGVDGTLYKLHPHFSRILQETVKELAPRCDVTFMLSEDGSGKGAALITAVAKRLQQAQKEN

[21] = target: ATP-dependent molecular chaperone HSP82 (Candida albicans (strain WO-1) (Yeast), UniProt C4YTQ8); experiment: loss of DOC-induced GRE-beta-galactosidase reporter signal, dose response, Hsp90 inhibitor project, S. cerevisiae, luminescence (AID 2400); type: functional, cell-based;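 note: beta-galactosidase luminescence from glucocorticoid response element reporter as proxy for Hsp90 function; inhibitor potency where signal loss means Hsp90 inhibition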
ATP-dependent molecular chaperone HSP82, sequence (C4YTQ8 whole entry): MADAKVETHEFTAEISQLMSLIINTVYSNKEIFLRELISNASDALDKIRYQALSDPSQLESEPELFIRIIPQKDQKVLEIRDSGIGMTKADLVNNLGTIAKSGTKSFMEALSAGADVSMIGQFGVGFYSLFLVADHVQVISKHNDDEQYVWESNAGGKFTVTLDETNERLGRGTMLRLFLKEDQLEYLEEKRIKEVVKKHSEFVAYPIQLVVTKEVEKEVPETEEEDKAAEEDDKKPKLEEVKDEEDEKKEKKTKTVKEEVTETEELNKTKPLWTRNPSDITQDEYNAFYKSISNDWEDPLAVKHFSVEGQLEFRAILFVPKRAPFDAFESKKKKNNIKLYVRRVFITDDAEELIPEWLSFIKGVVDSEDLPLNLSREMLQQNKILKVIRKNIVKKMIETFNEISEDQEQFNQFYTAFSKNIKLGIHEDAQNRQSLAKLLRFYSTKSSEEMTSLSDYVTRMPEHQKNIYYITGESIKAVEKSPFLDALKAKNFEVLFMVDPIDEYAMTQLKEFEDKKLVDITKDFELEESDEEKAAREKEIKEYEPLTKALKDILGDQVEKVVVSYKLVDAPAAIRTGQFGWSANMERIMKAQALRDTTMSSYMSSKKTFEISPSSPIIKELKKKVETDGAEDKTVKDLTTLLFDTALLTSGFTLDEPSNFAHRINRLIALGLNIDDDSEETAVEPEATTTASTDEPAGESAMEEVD

[22] = target: T6, Serine/threonine-protein phosphatase (Candida dubliniensis (strain CD36 / CBS 7987 / NCPF 3949 / NRRLY-17841) (Yeast), UniProt B9W6M3); experiment: calcineurin pathway inhibitors in yeast reporter, dose response, S. cerevisiae, CDRE-lacZ, luminescence, secondary (AID 2388); type: functional, cell-based;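 note: yeast reporter cells carrying a calcineurin-responsive lacZ construct stimulated with calcium chloride; luminescent beta-galactosidase reporter signal in whole cells rather than isolated phosphatase activity; potency for inhibition where a drop in reporter signal means calcineurin blockade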
T6 sequence (B9W6M3 whole entry): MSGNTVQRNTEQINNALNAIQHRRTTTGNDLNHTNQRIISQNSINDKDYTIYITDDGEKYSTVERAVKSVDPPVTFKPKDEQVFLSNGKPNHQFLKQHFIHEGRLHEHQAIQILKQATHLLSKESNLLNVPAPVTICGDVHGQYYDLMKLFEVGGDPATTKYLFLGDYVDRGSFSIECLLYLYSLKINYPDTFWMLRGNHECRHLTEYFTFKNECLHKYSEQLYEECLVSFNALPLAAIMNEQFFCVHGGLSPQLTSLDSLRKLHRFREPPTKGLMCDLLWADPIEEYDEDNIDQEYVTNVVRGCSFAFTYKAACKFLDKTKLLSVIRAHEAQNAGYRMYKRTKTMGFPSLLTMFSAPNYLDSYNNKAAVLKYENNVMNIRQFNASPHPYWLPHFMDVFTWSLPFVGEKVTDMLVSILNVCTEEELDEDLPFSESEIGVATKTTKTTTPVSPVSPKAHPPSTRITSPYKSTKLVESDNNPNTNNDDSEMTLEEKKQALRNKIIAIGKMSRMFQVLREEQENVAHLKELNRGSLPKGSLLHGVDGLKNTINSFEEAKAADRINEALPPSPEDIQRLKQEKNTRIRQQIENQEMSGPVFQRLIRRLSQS

[23] = C. albicans growth with fluconazole, confirmation, fluorescence, retest (AID 2467); type: functional, cell-based
[24] = target: Envelope glycoprotein gp160 (Human immunodeficiency virus 1, UniProt Q6QLK5); experiment: inhibitors of HIV fusion peptide binding, primary screen, biochemical, uHTS, fluorescence dequenching (AID 1986)
Envelope glycoprotein gp160, sequence (Q6QLK5 whole entry, the tested form may be a part): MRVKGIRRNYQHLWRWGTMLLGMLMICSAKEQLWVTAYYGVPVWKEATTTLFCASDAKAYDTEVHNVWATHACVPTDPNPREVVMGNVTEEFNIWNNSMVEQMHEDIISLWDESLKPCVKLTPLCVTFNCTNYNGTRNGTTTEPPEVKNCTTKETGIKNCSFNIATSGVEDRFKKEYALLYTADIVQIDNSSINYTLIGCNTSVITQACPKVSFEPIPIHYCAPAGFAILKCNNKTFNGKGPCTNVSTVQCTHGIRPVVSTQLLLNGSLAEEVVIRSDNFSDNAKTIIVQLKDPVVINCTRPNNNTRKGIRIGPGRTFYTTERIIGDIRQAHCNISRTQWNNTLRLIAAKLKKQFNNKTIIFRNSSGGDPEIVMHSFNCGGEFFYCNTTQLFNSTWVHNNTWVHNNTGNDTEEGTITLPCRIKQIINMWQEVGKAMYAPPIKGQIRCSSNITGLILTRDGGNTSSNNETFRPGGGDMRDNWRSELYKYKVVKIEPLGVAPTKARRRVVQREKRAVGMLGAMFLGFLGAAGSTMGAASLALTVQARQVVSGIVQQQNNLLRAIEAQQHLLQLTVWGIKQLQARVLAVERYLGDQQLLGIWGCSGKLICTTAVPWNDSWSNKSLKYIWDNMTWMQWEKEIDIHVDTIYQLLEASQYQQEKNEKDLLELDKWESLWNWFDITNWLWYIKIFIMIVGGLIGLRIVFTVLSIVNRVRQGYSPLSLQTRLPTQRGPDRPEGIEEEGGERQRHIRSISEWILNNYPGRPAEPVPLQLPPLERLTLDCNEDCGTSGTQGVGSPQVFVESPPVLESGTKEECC

[25] = NIH-3T3 fibroblast cytotoxicity, dose response, cytotoxicity control, cell-based, fluorescence, Alamar Blue, secondary assay (AID 2327); type: functional;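 note: NIH-3T3 mouse fibroblasts cultured with fluconazole at 8 µg/mL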
[26] = target: Tyrosine-protein phosphatase non-receptor type 12 (Homo sapiens, UniProt Q05209); experiment: SAR Selectivity Analysis of small molecule inhibitors of PEST using pCAP in a fluorescence assay. [Related pubchem assays (depositor defined):AID1779, AID1784, AID2135]; type: functional
Tyrosine-protein phosphatase non-receptor type 12, sequence (Q05209 whole entry): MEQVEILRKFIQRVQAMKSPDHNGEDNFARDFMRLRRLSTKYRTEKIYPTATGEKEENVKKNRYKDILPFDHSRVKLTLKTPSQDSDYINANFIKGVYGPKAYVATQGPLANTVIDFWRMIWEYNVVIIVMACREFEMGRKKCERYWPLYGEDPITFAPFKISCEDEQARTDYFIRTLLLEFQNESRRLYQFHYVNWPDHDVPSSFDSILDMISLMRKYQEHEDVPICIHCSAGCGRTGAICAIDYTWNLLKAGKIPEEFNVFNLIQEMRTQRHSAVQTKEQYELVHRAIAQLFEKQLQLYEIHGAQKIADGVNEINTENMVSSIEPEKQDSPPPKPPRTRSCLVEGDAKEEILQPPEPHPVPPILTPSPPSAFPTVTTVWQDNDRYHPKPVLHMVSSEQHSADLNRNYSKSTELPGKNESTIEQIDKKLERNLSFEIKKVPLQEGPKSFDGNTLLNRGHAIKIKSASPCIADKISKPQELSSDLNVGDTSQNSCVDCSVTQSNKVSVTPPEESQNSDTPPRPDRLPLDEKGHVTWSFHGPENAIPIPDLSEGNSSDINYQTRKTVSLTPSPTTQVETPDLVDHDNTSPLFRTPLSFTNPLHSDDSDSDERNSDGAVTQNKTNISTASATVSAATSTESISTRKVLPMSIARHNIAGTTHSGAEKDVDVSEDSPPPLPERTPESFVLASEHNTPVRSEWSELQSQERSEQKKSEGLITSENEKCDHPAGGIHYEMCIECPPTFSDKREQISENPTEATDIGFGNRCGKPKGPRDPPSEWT

[27] = target: T7, Tyrosine-protein phosphatase non-receptor type 22 (Homo sapiens, UniProt Q9Y2R2); experiment: SAR LYP1 Fluorescent Assay using OMFP substrate for In Vitro dose response studies - Set 4. [Related pubchem assays (depositor defined):AID1779, AID1784, AID2140, AID2686]; type: functional
T7 sequence (Q9Y2R2 whole entry): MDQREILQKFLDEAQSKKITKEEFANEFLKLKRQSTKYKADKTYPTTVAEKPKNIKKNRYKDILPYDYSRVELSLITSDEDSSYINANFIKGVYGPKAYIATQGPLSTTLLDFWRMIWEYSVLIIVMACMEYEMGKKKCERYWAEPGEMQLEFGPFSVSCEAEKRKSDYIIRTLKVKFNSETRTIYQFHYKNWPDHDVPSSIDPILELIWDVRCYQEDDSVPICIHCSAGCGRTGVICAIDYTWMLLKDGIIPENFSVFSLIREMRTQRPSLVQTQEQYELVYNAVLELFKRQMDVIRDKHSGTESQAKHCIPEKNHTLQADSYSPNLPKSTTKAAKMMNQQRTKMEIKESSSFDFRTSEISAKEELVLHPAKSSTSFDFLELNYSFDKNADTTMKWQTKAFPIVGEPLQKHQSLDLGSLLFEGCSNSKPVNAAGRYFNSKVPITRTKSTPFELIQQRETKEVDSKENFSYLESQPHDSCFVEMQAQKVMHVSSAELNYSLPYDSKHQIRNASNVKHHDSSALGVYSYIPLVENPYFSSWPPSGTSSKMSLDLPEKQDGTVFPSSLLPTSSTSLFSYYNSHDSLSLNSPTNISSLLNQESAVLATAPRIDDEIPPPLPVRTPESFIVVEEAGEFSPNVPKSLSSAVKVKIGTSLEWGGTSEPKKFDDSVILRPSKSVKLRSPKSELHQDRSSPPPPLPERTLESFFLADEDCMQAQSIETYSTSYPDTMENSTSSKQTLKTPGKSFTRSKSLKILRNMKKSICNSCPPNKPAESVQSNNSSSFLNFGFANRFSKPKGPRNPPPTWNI

[28] = target: T7, Tyrosine-protein phosphatase non-receptor type 22; experiment: SAR LYP1 Fluorescent Assay using pCAP substrate for In Vitro dose response studies - Set 4. [Related pubchem assays (depositor defined):AID1779, AID1784]; type: functional
[29] = target: Female germline-specific tumor suppressor gld-1 (Caenorhabditis elegans, UniProt Q17339); experiment: inhibitors of GLD-1 binding to TGE RNA, dose response, biochemical, fluorescence polarization, C. elegans (AID 2802);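 note: fluorescence polarization of labeled TGE RNA bound by purified gld-1 protein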
Protein Rev = Protein Rev (Human immunodeficiency virus type 1 group M subtype B (isolate HXB2)(HIV-1), UniProt P04618); experiment: inhibitors of Rev binding to RRE RNA, dose response, biochemical, fluorescence polarization, HIV-1 (AID 434976); design: species or system Human immunodeficiency virus 1
Protein Rev, sequence (P04618 whole entry): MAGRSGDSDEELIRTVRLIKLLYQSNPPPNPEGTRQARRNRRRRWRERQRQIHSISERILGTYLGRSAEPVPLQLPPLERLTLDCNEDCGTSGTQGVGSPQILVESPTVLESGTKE

Mucolipin-3 = Mucolipin-3 (Homo sapiens, UniProt Q8TDD5); experiment: Dose response cell-based high-throughput screening assay for agonists of the transient receptor potential channel ML3 (TRPML3). [Related pubchem assays: 1526, 1424, 1448 ]; type: functional
Ion channel NompC = Ion channel NompC (Danio rerio, UniProt Q7T1G6); experiment: Fluorescence counterscreen assay for TRPML3 agonists: dose response cell-based high-throughput screening assay to identify agonists of the transient receptor potential channel N1 (TRPN1). [Related pubchem assays: 1526, 1424, 1448 ]; type: functional
[30] = target: NACHT, LRR and PYD domains-containing protein 3 (Homo sapiens, UniProt Q96P20); experiment: NALP3 inhibitors in yeast, dose response, luminescent (AID 488799); type: functional

T2 sequence (P41145 whole entry): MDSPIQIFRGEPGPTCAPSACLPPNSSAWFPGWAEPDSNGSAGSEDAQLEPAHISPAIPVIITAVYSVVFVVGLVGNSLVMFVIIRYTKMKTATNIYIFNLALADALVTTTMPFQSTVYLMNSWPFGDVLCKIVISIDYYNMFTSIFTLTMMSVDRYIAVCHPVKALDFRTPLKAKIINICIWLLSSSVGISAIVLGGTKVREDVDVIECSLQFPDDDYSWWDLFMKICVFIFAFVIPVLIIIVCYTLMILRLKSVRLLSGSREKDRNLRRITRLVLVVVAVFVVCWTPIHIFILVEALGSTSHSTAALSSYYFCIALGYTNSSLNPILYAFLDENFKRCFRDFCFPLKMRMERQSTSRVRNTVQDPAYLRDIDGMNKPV
T1 sequence (P41143 whole entry): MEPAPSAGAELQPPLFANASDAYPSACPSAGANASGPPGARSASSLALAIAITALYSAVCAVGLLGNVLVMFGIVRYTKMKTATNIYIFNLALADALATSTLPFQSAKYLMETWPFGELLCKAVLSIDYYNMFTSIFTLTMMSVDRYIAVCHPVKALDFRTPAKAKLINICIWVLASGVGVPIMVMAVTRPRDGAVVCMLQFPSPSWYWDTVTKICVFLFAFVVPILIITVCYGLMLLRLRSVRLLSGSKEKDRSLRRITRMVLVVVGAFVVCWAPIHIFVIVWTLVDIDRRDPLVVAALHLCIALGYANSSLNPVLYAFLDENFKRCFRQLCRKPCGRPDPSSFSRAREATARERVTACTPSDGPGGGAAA

Clc1cccc(CSc2nnc(-c3ccccn3)n2Cc2ccco2)c1
EC50 [1]: > 32 µM (inactive)
EC50 [2]: 8.35 µM
IC50 [3]: > 32 µM (inactive)
CC50 [4]: 15.1 µM (active)
IC50 [5]: > 32 µM (inactive)
EC50 (Mu-type opioid receptor [6]): > 32 µM (inactive)
EC50 [7]: 5.6 µM
EC50 [8]: > 32 µM (inactive)
EC50 (Mu-type opioid receptor [9]): > 32 µM (inactive)
IC50 (Mu-type opioid receptor [10]): > 32 µM (inactive)
IC50 [11]: > 32 µM (inactive)

CNCc1ccccc1Sc1cc(O)ccc1O
IC50 [12]: > 66 µM (inactive)
IC50 [13]: > 122 µM (inactive)
IC50 [14]: > 66 µM (inactive)
CC50 [15]: 38.8 µM (active)
IC50 [16]: > 64 µM (inactive)
IC50 [17]: 4.5 µM (active)
CC50 [18]: > 40 µM (active)
IC50 [19]: 26.9 µM (inactive)
IC50 [20]: 23.5 µM (inactive)
IC50 (Beta-galactosidase): > 66.6 µM (inactive)
IC50 (Hexokinase HKDC1): 3.35 µM (active)

CC(C)CCN1C(=O)c2ccc(C(=O)Nc3ccc(Br)cc3C(=O)O)cc2C1=O
EC50 [21]: 15.6 µM (active)
EC50 [22]: > 180 µM (inactive)
EC50 [23]: 2.46 µM (active)
IC50 [24]: > 99 µM (inactive)
EC50 [25]: > 160 µM (inactive)

CCOC(=O)COc1ccc(/C=N/NC(=O)c2ccc(-c3csc(Nc4ccc(Cl)cc4)n3)cc2)cc1
IC50 [26]: 37.4 µM (active)
IC50 [27]: 89 µM (active)
IC50 [28]: 60.8 µM (active)

Cc1ccc2c3c(cccc13)-c1ccccc1C2=O
IC50 [29]: 2.67 µM (active)
IC50 [12]: 51.1 µM (inactive)
IC50 [14]: 38.3 µM (inactive)
IC50 (Protein Rev): 10.1 µM (not active)

CN(CCOc1ccccc1)c1ccc(S(=O)(=O)N2CCCCC2)cn1
EC50 (Mucolipin-3): 2.58 µM (active)
EC50 (Ion channel NompC): > 29.9 µM (not active)
IC50 [30]: > 100 µM (inactive)

Reference: ChEMBL document CHEMBL1201862, “PubChem BioAssay data set” (2004)
